Columns and labels:
[1] = system: MMP (MMP2, MMP9); experiment: MMP enzyme protein and mRNA expression in trabecular meshwork tissue; assay type: in vivo, C57BL/6J mice; details: Example 2 oral 20 mg/kg once a day and 10 mg/kg twice a day; acetazolamide 4.17 mg/kg once a day
Procedure: (§1) In Experimental Example 10, the expression amounts of these proteins and mRNAs in MMP and TIMP enzymes were measured for the eye tissues of the respective laboratory animals which the measurement of the intraocular pressure was completed, and the results are shown in FIG. 14 to FIG. 17. FIG. 14 and FIG. 15 show protein expression amounts of MMP (MMP2, MMP9) and TIMP (TIMP 1, TIMP2) enzymes, respectively. FIG. 16 and FIG. 17 show mRNA expression levels. In FIG. 14 to FIG. 17, Normal represents the expression level of the animal to which the dexamethasone was not treated in Experimental Example 10, Control represents the expression level of the animal to which only the excipient was administered in Experimental Example 10, and Acetazolamide represents the expression level of the animal to which acetazolamide was administered in Experimental Example 10.

[2] = system: extracellular matrix proteins (Fibronectin, SMA and MYOC); experiment: Anti-fibrotic effect on trabecular meshwork tissue (immunostaining); assay type: in vivo, C57BL/6J mice; details: Example 2 oral 20 mg/kg once a day and 10 mg/kg twice a day; acetazolamide 4.17 mg/kg once a day
Procedure: In Experimental Example 10, the ocular tissues of each laboratory animal after measurement of intraocular pressure were extracted and sectioned and immunostaining using antibody was performed to confirm the expression of extracellular matrix proteins (Fibronectin, SMA and MYOC) and the results are shown in FIG. 13. In FIG. 13, Normal represents the trabecular meshwork of the animal which dexamethasone was not treated with in Experimental Example 10, Control represents the trabecular meshwork tissue of the animal to which only the excipient was administered in Experimental Example 10, Acetazolamide represents the trabecular meshwork tissue of the animal to which acetazolamide was administered in Experimental Example 10. Fluorescently stained tissue was observed under fluorescence microscope under the same conditions (magnification 200×, exposure time 1 sec).

[3] = system: TIMP (TIMP 1, TIMP2); experiment: TIMP enzyme protein and mRNA expression in trabecular meshwork tissue; assay type: in vivo, C57BL/6J mice; details: Example 2 oral 20 mg/kg once a day and 10 mg/kg twice a day; acetazolamide 4.17 mg/kg once a day
Procedure: as §1

[4] = system: TPA-induced mouse ear edema; experiment: Anti-inflammatory activity, TPA-induced mouse ear edema; assay type: in vivo, ICR mice; details: for TPA-induced mouse ear edema: 0.5% in acetone
Procedure: In order to investigate the anti-inflammatory activity of the derivatives of the present invention, the animal experiments were performed as below. Seven-week-old male ICR mice were treated with TPA (12-O-tetradecanoylphorbol 13-acetate, […]) in the right ear. […] The same experiment was performed by treating hydrocortisone used as a treatment agent for inflammation as a control at the same concentration.
Subsequently, secondly, the adenosine derivative compound of the present invention was treated after 6 hours from TPA treatment. Twenty-four hours after TPA treatment, the animals were euthanized using the cervical dislocation method. Then, a right ear sample was obtained using a 6 mm diameter punch. The activity could be confirmed by weighing using a microbalance. The inhibition rate (%) was calculated using the following Equation 1.

[5] = target: T1, adenosine A3 receptor in rats expressed in Chinese hamster ovary (CHO) cells (Rattus norvegicus, UniProt P28647); experiment: Binding affinity for rat adenosine A3 receptor expressed in CHO cells
T1 construct: expressed in transfected cells; host or cells: CHO
T1 sequence (P28647 1-320): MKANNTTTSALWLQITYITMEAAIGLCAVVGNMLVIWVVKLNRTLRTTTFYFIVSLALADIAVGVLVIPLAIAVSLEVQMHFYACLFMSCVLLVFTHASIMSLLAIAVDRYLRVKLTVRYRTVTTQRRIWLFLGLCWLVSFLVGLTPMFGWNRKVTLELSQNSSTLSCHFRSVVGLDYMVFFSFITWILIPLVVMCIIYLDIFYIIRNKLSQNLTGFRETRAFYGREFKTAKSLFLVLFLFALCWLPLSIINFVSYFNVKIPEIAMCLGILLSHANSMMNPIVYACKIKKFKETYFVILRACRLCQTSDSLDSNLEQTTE

[6] = target: T2, human adenosine A3 receptor (Homo sapiens, UniProt P0DMS8); experiment: Antagonistic effect and cAMP inhibition test on adenosine A3 receptor (CHO cells, Cl-IB-MECA, Schild analysis); assay type: cell-based; details: different concentrations
T2 construct: expressed in transfected cells; host or cells: CHO (ATCC CCL-61)
T2 sequence (P0DMS8 1-318): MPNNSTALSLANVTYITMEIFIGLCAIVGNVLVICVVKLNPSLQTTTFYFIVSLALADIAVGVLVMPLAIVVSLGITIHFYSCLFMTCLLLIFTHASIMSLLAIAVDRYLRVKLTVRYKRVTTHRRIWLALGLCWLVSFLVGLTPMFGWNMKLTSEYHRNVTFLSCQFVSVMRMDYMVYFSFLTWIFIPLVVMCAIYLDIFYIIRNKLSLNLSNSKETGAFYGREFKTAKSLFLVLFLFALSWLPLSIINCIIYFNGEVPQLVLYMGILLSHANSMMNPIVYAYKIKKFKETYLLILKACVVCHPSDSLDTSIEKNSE

[7] = target: T3, human adenosine A2B receptor (Homo sapiens, UniProt P29275); experiment: Agonist or antagonist activity at human adenosine A2B receptor; assay type: biochemical
T3 sequence (P29275 1-332): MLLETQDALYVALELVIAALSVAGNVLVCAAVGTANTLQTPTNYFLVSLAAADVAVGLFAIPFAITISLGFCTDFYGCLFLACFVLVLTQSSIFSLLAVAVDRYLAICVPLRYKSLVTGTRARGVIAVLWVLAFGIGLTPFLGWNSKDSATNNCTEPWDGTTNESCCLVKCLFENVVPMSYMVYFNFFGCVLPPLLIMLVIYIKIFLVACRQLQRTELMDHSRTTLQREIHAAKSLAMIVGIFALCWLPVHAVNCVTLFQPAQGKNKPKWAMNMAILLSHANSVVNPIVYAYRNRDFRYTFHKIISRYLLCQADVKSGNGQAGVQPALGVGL

[8] = target: T4, human adenosine A3 receptor (hA3) (Homo sapiens, UniProt P0DMS8); experiment: Binding affinity for human adenosine A3 receptor (CHO cells, [125I]AB-MECA); details: read-out: K(nM) hA3
T4 construct: expressed in transfected cells; host or cells: CHO (ATCC CCL-61)
T4 sequence (P0DMS8 1-318): T2 sequence (P0DMS8 1-318)
Procedure: The Chinese hamster ovary (CHO, ATCC; American Cell Line No. CCL-61) cells expressing the adenosine A1 and A3 receptors were cultured in F-12 (Gibco Co., USA) medium supplemented with 10% fetal bovine serum (FBS) and penicillin/streptomycin (100 units/ml and 100 μg/ml) at 37° C. and 5% carbon dioxide. […] Various concentrations of the derivatives of the present invention are first dissolved in dimethylsulfoxide (DMSO) and then diluted with buffer solution and the final concentration of DMSO should not exceed 1%, and the cells are incubated in a 37° C. thermostat for 1 hour and the cells were rapidly filtered under reduced pressure using a cell collector (TOMTEC Co., USA). Subsequently, the test tube was washed three times with 3 ml buffer, and radioactivity was determined using a γ-counter. […] Specific binding was calculated by subtracting non-specific binding from total binding. From the measured specific binding, the bonding affinity of each sample of the various receptors was determined.

[9] = target: T5, human adenosine A1 receptor (hA1) (Homo sapiens, UniProt P30542); experiment: Binding affinity for human adenosine A1 receptor (CHO cells, [3H]CCPA); details: test concentration not given
T5 construct: expressed in transfected cells; host or cells: CHO (ATCC CCL-61)
T5 sequence (P30542 1-326): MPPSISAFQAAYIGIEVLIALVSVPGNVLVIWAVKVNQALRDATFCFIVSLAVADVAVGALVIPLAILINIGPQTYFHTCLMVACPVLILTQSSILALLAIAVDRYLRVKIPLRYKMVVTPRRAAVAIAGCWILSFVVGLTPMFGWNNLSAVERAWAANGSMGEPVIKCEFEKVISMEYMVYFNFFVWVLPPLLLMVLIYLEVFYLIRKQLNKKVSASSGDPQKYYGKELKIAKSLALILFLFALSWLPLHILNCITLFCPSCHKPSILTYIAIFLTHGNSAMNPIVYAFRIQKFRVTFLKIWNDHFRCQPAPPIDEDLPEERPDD

[10] = target: T6, human adenosine A2A receptor (hA2A) (Homo sapiens, UniProt P29274); experiment: Binding affinity for human adenosine A2A receptor (HEK 293 cells, [3H]CGS-21680); details: test concentration not given
T6 construct: expressed in transfected cells; host or cells: HEK 293
T6 sequence (P29274 whole entry): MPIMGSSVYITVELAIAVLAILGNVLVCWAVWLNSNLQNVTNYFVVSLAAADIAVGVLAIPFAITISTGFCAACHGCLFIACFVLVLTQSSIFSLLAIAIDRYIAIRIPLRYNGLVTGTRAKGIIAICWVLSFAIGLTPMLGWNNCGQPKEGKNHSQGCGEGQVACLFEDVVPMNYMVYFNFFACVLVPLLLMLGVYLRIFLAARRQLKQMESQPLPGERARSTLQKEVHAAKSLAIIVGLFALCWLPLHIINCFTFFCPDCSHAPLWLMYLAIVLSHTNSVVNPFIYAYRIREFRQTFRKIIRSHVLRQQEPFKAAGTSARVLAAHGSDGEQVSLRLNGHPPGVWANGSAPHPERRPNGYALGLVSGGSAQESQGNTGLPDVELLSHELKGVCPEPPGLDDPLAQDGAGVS

[11] = 0.5% in mixed solvent of DMSO and acetone (1:9)
[12] = 0.5% in mixed solvent of distilled water and acetone (1:4)

Q: Which melting point does the source give for `O[C@@H]1[C@H](O)CS[C@H]1n1cnc2c(NCc3cccc(Br)c3)ncnc21` [Example 13, (2R,3R,4S)-2-(6-(3-bromobenzylamino)-9H-purin-9-yl)tetrahydrothiophene-3,4-diol] here?
A: The melting point was 183 to 184 °C.

Q: With `CC(=O)Nc1nnc(S(N)(=O)=O)s1` [acetazolamide, reference compound] as the compound, how does the “protein and mRNA expression levels of MMP enzyme compared with the normal group” value [1] read?
A: Its value is “significantly decreased”.

Q: And the “expression of fibronectin, SMA and MYOC protein in trabecular meshwork tissue” value [2]?
A: Its value is “increased expression”.

Q: What about the “protein and mRNA expression levels of TIMP enzyme compared with the normal group” value [3] of the same compound?
A: Its value is “significantly increased”.

Q: With `O[C@@H]1[C@H](O)CO[C@H]1n1cnc2c(NCc3cccc(I)c3)nc(Cl)nc21` [Example 16, (2R,3R,4R)-2-(6-(3-iodobenzylamino)-2-chloro-9H-purin-9-yl)tetrahydrofuro-3,4-diol] as the compound, how does the inflammation inhibition rate [4, 11] read?
A: Its inflammation inhibition rate is 79%.

Q: And the melting point?
A: Its melting point is 195.5 to 195.8 °C.

Q: For `O[C@@H]1[C@H](O)CS[C@H]1n1cnc2c(NCc3cccc(I)c3)ncnc21` [Example 14, (2R,3R,4S)-2-(6-(3-iodobenzylamino)-9H-purin-9-yl) tetrahydrothiophene-3,4-diol], which melting point is on record?
A: Its melting point is 198.8 to 199.8 °C.

Q: With `COc1ccc(Cl)cc1CNc1nc(Cl)nc2c1ncn2[C@@H]1SC[C@@H](O)[C@H]1O` [Example 6, (2R,3R,4S)-2-(2-chloro-6-(5-chloro-2-methoxybenzylamino)-9H-purin-9-yl)tetrahydrothiophene-3,4-diol] as the compound, how does the inflammation inhibition rate [4, 12] read?
A: Its inflammation inhibition rate is 34%.

Q: And the melting point?
A: Its melting point is 188.8 to 189.8 °C.

Q: Which results are given for `O[C@@H]1[C@H](O)CS[C@H]1n1cnc2c(NCc3cccc(Br)c3)nc(Cl)nc21` [Example 3, (2R,3R,4S)-2-(2-chloro-6-(3-bromobenzylamino)-9H-purin-9-yl)tetrahydrothiophene-3,4-diol]?
A: TPA-induced mouse ear edema [4]: reduced by a small amount; melting point: 184 to 185 °C

Q: For `O[C@@H]1[C@H](O)CS[C@H]1n1cnc2c(NCc3cccc(I)c3)nc(Cl)nc21` [Example 4, (2R,3R,4S)-2-(2-chloro-6-(3-iodobenzylamino)-9H-purin-9-yl)tetrahydrothiophene-3,4-diol], which “TPA-induced mouse ear edema” value [4] is on record?
A: Its value is “reduced by a small amount”.

Q: And the “TPA-induced mouse ear edema” value ([4]; listed as compound 4)?
A: Its value is “had an effect of reducing edema”.

Q: And the Ki [5]?
A: Its Ki is 3.89 ± 1.15 nM.

Q: What about the “effect of the agonist Cl-IB-MECA in CHO cells treated with the compound” value [6] of the same compound?
A: Its value is “inhibited depending on the concentration”.

Q: What about the “activity as an agonist or an antagonist at human adenosine A2B receptor” value [7] of the same compound?
A: The value was “did not show activity as an agonist or an antagonist”.

Q: Which inflammation inhibition rate [4, 11] does the source give for `O[C@@H]1[C@H](O)CO[C@H]1n1cnc2c(NCc3cccc(Br)c3)nc(Cl)nc21` [Example 15, (2R,3R,4R)-2-(6-(3-bromobenzylamino)-2-chloro-9H-purin-9-yl)tetrahydrofuran-3,4-diol] here?
A: Its inflammation inhibition rate is 59%.

Q: What about the melting point of the same compound?
A: Its melting point is 181.5 to 181.7 °C.

Q: For `COc1ccccc1CNc1nc(Cl)nc2c1ncn2[C@@H]1SC[C@@H](O)[C@H]1O` [Example 7, (2R,3R,4S)-2-(2-chloro-6-(2-methoxybenzylamino)-9H-purin-9-yl)tetrahydrothiophene-3,4-diol], which inflammation inhibition rate [4, 12] is on record?
A: The inflammation inhibition rate was 53%.

Q: And the melting point?
A: The melting point was 188 °C.

Q: For `O[C@@H]1[C@H](O)CS[C@H]1n1cnc2c(NCc3cccc(F)c3)nc(Cl)nc21` [Example 1, (2R,3R,4S)-2-(2-chloro-6-(3-fluorobenzylamino)-9H-purin-9-yl)tetrahydrothiophene-3,4-diol], which melting point is on record?
A: The melting point was 183.2 to 183.5 °C.

Q: For “(2R,3R,4S)-2-(2-chloro-6-(naphthalen-1-ylmethylbenzylamino)-9H-purin-9-yl)tetrahydrothiophene-3,4-diol [Example 8]”, which Ki [8] is on record?
A: Its Ki is 24.8 ± 8.1 nM.

Q: And the “% hA1” value [9]?
A: The value was 22.0%.

Q: What about the “% hA2A” value [10] of the same compound?
A: Its value is −8.3%.

Q: Which melting point does the source give for `O=C(O)c1cccc(CNc2nc(Cl)nc3c2ncn3[C@@H]2SC[C@H](O)[C@@H]2O)c1` [Example 9, 3-((2-chloro-9-((2R,3S,4R)-3,4-dihydroxytetrahydrothiophen-2-yl)-9H-purin-6-ylamino)methyl)benzoic acid] here?
A: Its melting point is 254 to 256.9 °C.

Q: With `O[C@@H]1[C@H](O)CS[C@H]1n1cnc2c(NCc3ccccc3Cl)nc(Cl)nc21` [Example 5, (2R,3R,4S)-2-(2-chloro-6-(2-chlorobenzylamino)-9H-purin-9-yl) tetrahydrothiophene-3,4-diol] as the compound, how does the inflammation inhibition rate [4, 12] read?
A: The inflammation inhibition rate was 17%.

Q: And the melting point?
A: The melting point was 198.7 to 199.7 °C.

Reference: patent US12083140B2, “Pharmaceutical composition for preventing and treating glaucoma, containing adenosine derivative” (FUTURE MEDICINE CO., LTD., priority 2017, dated 2024)
